Test results as given in publication PMC9316761, “Thiosemicarbazide-Substituted Coumarins as Selective Inhibitors of the Tumor Associated Human Carbonic Anhydrases IX and XII” (Molecules, 2022).

Key:
hCA II = molecular target: T1, hCA II (Homo sapiens, UniProt P00918); assay: stopped flow CO2 hydrase assay, hCA II; type: biochemical; conditions: mean from 3 assays, errors ±5–10%; 6 h preincubation
T1 construct: made in house

hCA IX = molecular target: T2, hCA IX (Homo sapiens, UniProt Q16790); assay: stopped flow CO2 hydrase assay, hCA IX; type: biochemical; conditions: for fold more potent on hCA IX than 6-substituted counterpart: 7-substituted versus 6-substituted regioisomer (20a, 22a); for Ki: mean from 3 assays, errors ±5–10%, 6 h preincubation; for fold increase of hCA IX Ki relative to the 4-iodo derivative 18a: Ki ratio versus 18a; for fold loss of hCA IX inhibition potency relative to 14a: Ki ratio versus 14a
T2 construct: made in house

hCA XII = molecular target: T3, hCA XII (Homo sapiens, UniProt O43570); assay: stopped flow CO2 hydrase assay, hCA XII; type: biochemical; conditions: for fold more effective on hCA XII than 6-substituted counterpart: 7-substituted versus 6-substituted regioisomer (20a, 21a)
T3 construct: made in house
T3 sequence (O43570 25-354): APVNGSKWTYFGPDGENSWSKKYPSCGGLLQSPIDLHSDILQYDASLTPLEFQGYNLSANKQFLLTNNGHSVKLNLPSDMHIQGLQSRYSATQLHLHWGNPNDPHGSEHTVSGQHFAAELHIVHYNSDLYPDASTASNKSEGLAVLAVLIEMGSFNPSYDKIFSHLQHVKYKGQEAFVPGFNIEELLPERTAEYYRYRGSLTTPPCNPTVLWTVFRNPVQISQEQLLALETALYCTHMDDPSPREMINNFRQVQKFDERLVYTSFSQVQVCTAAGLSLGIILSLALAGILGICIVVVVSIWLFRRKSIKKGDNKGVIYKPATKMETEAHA

hCA I = molecular target: T4, hCA I (Homo sapiens, UniProt P00915); assay: stopped flow CO2 hydrase assay, hCA I; type: biochemical; conditions: mean from 3 assays, errors ±5–10%; 6 h preincubation
T4 construct: made in house
T4 sequence (P00915 whole entry): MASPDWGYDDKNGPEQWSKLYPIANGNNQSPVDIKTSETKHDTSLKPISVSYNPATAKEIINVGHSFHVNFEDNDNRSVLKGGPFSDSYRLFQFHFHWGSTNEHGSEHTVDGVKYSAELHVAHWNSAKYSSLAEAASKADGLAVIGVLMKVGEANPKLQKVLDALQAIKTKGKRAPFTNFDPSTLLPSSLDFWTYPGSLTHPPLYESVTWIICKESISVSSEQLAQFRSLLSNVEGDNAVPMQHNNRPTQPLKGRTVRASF

melting point | Ki (hCA II) | fold more potent on hCA IX than 6-substituted counterpart (hCA IX) | Ki (hCA IX) | Ki (hCA XII) | Ki (hCA I) | fold increase of hCA IX Ki relative to the 4-iodo derivative 18a (hCA IX) | fold loss of hCA IX inhibition potency relative to 14a (hCA IX) | fold increase of hCA IX Ki relative to 14b (hCA IX; Ki ratio versus 14b) | fold more potent on hCA IX than on hCA XII (hCA IX; Ki hCA XII / Ki hCA IX) | fold more effective on hCA XII than 6-substituted counterpart (hCA XII) | fold less effective on hCA IX than on hCA XII (hCA XII; Ki hCA IX / Ki hCA XII) | SMILES
119 to 121 °C (dec.) | > 10000 nM | – | 64 nM | 745 nM | > 10000 nM | – | – | – | – | – | – | O=C(COc1ccc2ccc(=O)oc2c1)NNC(=S)Nc1ccc(F)cc1 [Compound 17b, N-(4-Fluorophenyl)-2-(2-((2-oxo-2H-chromen-7-yl)oxy)acetyl)hydrazine-1-carbothioamide]
167 to 169 °C | > 10000 nM | – | 234 nM | 709 nM | > 10000 nM | – | 26.6 fold | – | – | – | – | Cc1ccc(NC(=S)NNC(=O)COc2ccc3oc(=O)ccc3c2)cc1 [Compound 15a, N-(p-Tolyl)-2-(2-((2-oxo-2H-chromen-6-yl)oxy)acetyl)hydrazine-1-carbothioamide]
181 to 183 °C | > 10000 nM | – | 39 nM | 494 nM | > 10000 nM | – | – | – | – | – | – | O=C(COc1ccc2oc(=O)ccc2c1)NNC(=S)Nc1ccc(F)cc1 [Compound 17a, N-(4-Fluorophenyl)-2-(2-((2-oxo-2H-chromen-6-yl)oxy)acetyl)hydrazine-1-carbothioamide]
163 to 165 °C | > 10000 nM | – | 48 nM | 608 nM | > 10000 nM | – | – | – | – | – | – | O=C(COc1ccc2oc(=O)ccc2c1)NNC(=S)Nc1ccc(Cl)cc1 [Compound 16a, N-(4-Chlorophenyl)-2-(2-((2-oxo-2H-chromen-6-yl)oxy)acetyl)hydrazine-1-carbothioamide]
148 to 150 °C | > 10000 nM | – | 57 nM | 4 nM | > 10000 nM | 5.9 fold | – | – | – | – | 14 fold | CSc1ccc(NC(=S)NNC(=O)COc2ccc3oc(=O)ccc3c2)cc1 [Compound 22a, N-(4-(Methylthio)phenyl)-2-(2-((2-oxo-2H-chromen-6-yl)oxy)acetyl)hydrazine-1-carbothioamide]
160 to 162 °C | > 10000 nM | – | 9.6 nM | 8.4 nM | > 10000 nM | – | – | – | – | – | – | O=C(COc1ccc2oc(=O)ccc2c1)NNC(=S)Nc1ccc(I)cc1 [Compound 18a, N-(4-Iodophenyl)-2-(2-((2-oxo-2H-chromen-6-yl)oxy)acetyl)hydrazine-1-carbothioamide]

The remaining lines, values behind:

SMILES | melting point | Ki (hCA II) | fold more potent on hCA IX than 6-substituted counterpart (hCA IX) | Ki (hCA IX) | Ki (hCA XII) | Ki (hCA I) | fold increase of hCA IX Ki relative to the 4-iodo derivative 18a (hCA IX) | fold loss of hCA IX inhibition potency relative to 14a (hCA IX) | fold increase of hCA IX Ki relative to 14b (hCA IX; Ki ratio versus 14b) | fold more potent on hCA IX than on hCA XII (hCA IX; Ki hCA XII / Ki hCA IX) | fold more effective on hCA XII than 6-substituted counterpart (hCA XII) | fold less effective on hCA IX than on hCA XII (hCA XII; Ki hCA IX / Ki hCA XII)
CSc1ccc(NC(=S)NNC(=O)COc2ccc3ccc(=O)oc3c2)cc1 [Compound 22b, N-(4-(Methylthio)phenyl)-2-(2-((2-oxo-2H-chromen-7-yl)oxy)acetyl)hydrazine-1-carbothioamide] | 163 to 164 °C | > 10000 nM | 1.7 fold | 33 nM | 4.6 nM | > 10000 nM | – | – | – | – | – | –
O=C(COc1ccc2oc(=O)ccc2c1)NNC(=S)Nc1ccc(C(F)(F)F)cc1 [Compound 20a, N-(4-(Trifluoromethyl)phenyl)-2-(2-((2-oxo-2H-chromen-6-yl)oxy)acetyl)hydrazine-1-carbothioamide] | – | > 10000 nM | – | 92 nM | 306 nM | > 10000 nM | 9.6 fold | – | – | – | – | –
N#Cc1ccc(NC(=S)NNC(=O)COc2ccc3ccc(=O)oc3c2)cc1 [Compound 23b, N-(4-Cyanophenyl)-2-(2-((2-oxo-2H-chromen-7-yl)oxy)acetyl)hydrazine-1-carbothioamide] | 224 to 226 °C | > 10000 nM | – | 437 nM | 473 nM | > 10000 nM | – | – | – | – | – | –
O=C(COc1ccc2oc(=O)ccc2c1)NNC(=S)Nc1cccc([N+](=O)[O-])c1 [Compound 21a, N-(3-Nitrophenyl)-2-(2-((2-oxo-2H-chromen-6-yl)oxy)acetyl)hydrazine-1-carbothioamide] | 210 to 212 °C | > 10000 nM | – | 71 nM | 328 nM | > 10000 nM | – | – | – | – | – | –
Cc1ccc(NC(=S)NNC(=O)COc2ccc3ccc(=O)oc3c2)cc1 [Compound 15b, N-(p-Tolyl)-2-(2-((2-oxo-2H-chromen-7-yl)oxy)acetyl)hydrazine-1-carbothioamide] | 147 to 149 °C (dec.) | > 10000 nM | – | 78 nM | 684 nM | > 10000 nM | – | – | 1.7 fold | – | – | –
O=C(COc1ccc2ccc(=O)oc2c1)NNC(=S)Nc1ccc(I)cc1 [Compound 18b, N-(4-Iodophenyl)-2-(2-((2-oxo-2H-chromen-7-yl)oxy)acetyl)hydrazine-1-carbothioamide] | 164 to 166 °C | > 10000 nM | – | 721 nM | 7.5 nM | > 10000 nM | – | – | – | – | – | –
O=C(COc1ccc2ccc(=O)oc2c1)NNC(=S)Nc1ccc(Cl)cc1 [Compound 16b, N-(4-Chlorophenyl)-2-(2-((2-oxo-2H-chromen-7-yl)oxy)acetyl)hydrazine-1-carbothioamide] | 202 to 203 °C | > 10000 nM | – | 55 nM | 866 nM | > 10000 nM | – | – | – | – | – | –
O=C(COc1ccc2oc(=O)ccc2c1)NNC(=S)Nc1ccccc1 [Compound 14a, N-Phenyl-2-(2-((2-oxo-2H-chromen-6-yl)oxy)acetyl)hydrazine-1-carbothioamide] | 173 to 175 °C | > 10000 nM | – | 8.8 nM | 739 nM | > 10000 nM | – | – | – | 84 fold | – | –
O=C(COc1ccc2ccc(=O)oc2c1)NNC(=S)Nc1cccc([N+](=O)[O-])c1 [Compound 21b, N-(3-Nitrophenyl)-2-(2-((2-oxo-2H-chromen-7-yl)oxy)acetyl)hydrazine-1-carbothioamide] | 214 to 215 °C | > 10000 nM | – | 9.1 nM | 8.6 nM | > 10000 nM | – | – | – | – | 38.2 fold | –
O=C(COc1ccc2ccc(=O)oc2c1)NNC(=S)Nc1ccc(C(F)(F)F)cc1 [Compound 20b, N-(4-(Trifluoromethyl)phenyl)-2-(2-((2-oxo-2H-chromen-7-yl)oxy)acetyl)hydrazine-1-carbothioamide] | – | > 10000 nM | 1.3 fold | 70 nM | 56.6 nM | > 10000 nM | – | – | – | – | 5.4 fold | –
O=C(COc1ccc2oc(=O)ccc2c1)NNC(=S)Nc1cccc(I)c1 [Compound 19a, N-(3-Iodophenyl)-2-(2-((2-oxo-2H-chromen-6-yl)oxy)acetyl)hydrazine-1-carbothioamide] | 144 to 146 °C | > 10000 nM | – | 9.6 nM | 79 nM | > 10000 nM | – | – | – | – | – | –
O=C(COc1ccc2ccc(=O)oc2c1)NNC(=S)Nc1ccccc1 [Compound 14b, N-Phenyl-2-(2-((2-oxo-2H-chromen-7-yl)oxy)acetyl)hydrazine-1-carbothioamide] | 155 to 156 °C | > 10000 nM | – | 46 nM | 743 nM | > 10000 nM | – | 5.2 fold | – | – | – | –
O=C(COc1ccc2ccc(=O)oc2c1)NNC(=S)Nc1cccc(I)c1 [Compound 19b, N-(3-Iodophenyl)-2-(2-((2-oxo-2H-chromen-7-yl)oxy)acetyl)hydrazine-1-carbothioamide] | 168 to 169 °C | > 10000 nM | – | 9.4 nM | 573 nM | > 10000 nM | – | – | – | – | – | –
